Source: patent US8217013B2, “Polyene diester antibiotics” (priority 2007, dated 2012)
Read-outs that look alike come from different tables or passages of the source.

Key:
Assay in all cases: Test of antibacterial activity in vitro (bacteria-inhibition zone)
Assay type in all cases: cell-based
Candida mycoderma = conditions: for diameter of the bacteria-inhibition zone, Candida mycoderma 0 h / diameter of the bacteria-inhibition zone, Candida mycoderma 6 h / diameter of the bacteria-inhibition zone, Candida mycoderma 24 h / diameter of the bacteria-inhibition zone, Candida mycoderma 48 h: 2.8 μg/ml after conversion; for zone of inhibition at 5.6 µg/mL: 5.6 μg/ml after conversion
Description: (§1) Test of Antibacterial Activity In Vitro
(§2) Experiment drugs: the polyene diester compounds prepared by examples 1-12
(§3) Control drugs: amphotericin B (standard product) • mycostatin (standard product) • natamycin (standard product)
2.3 Preparation of Candida mycoderrna suspension: the method is as same as preparation of Saccharomyces cerevisiae suspension
(§4) Taking appropriate amount of the above mentioned amphotericin B, mycostatin, natamycin and the polyene diester compounds prepared by examples 1-8 and 10-12, dissolving in a little dimethyl sulfoxide respectively, using pH7 phosphate buffer to dilute into solution which is equivalent to contain amphotericin B, mycostatin, natamycin 280 Units per milliliter, taking 1 ml and using pH7 phosphate buffer to quantitatively dilute into solution which is equivalent to contain amphotericin B 1.4 μg/ml and 2.8 μg/ml, and is equivalent to contain 5.6 μg/ml of mycostatin and natamycin.
(§5) In addition, preparing the solution according to the same method, adding 40% defibered sheep serum, using pH7 phosphate buffer to quantitatively dilute into unit solution which is equivalent to contain amphotericin B 1.4 μg/ml and 2.8 μg/ml, and is equivalent to contain 5.6 μg/ml of mycostatin and natamycin. Testing according to PHARMACOPOEIA OF THE PEOPLES REPUBLIC OF CHINA, second part, 2005 edition, appendix XIA The Antibiotics Microorganism Test.
(§6) Medium: Improved Martin Agar Medium, PHARMACOPOEIA OF THE PEOPLES REPUBLIC OF CHINA, second part, 2005 edition, appendix p 84.
(§7) Test method: Double-plate counting method; […] bacteria bed 15 ml to replace the double layers, culture temperature: 37° C., time: 24 h; strain concentration: 1%
(§8) Medium: Modified Martin Broth Medium

Saccharomyces cerevisiae = conditions: for diameter of the bacteria-inhibition zone, Saccharomyces cerevisiae 0 h / diameter of the bacteria-inhibition zone, Saccharomyces cerevisiae 6 h / diameter of the bacteria-inhibition zone, Saccharomyces cerevisiae 24 h / diameter of the bacteria-inhibition zone, Saccharomyces cerevisiae 48 h: 2.8 μg/ml after conversion; for zone of inhibition at 5.6 µg/mL: Saccharomyces cerevisiae, 5.6 μg/ml after conversion
Description: as §1, §2, §3
2.2 Preparation of Saccharomyces cerevisiae suspension: PHARMACOPOEIA OF THE PEOPLES REPUBLIC OF CHINA, second part, 2005 edition, appendix p 80, p 83.
as §4, §5, §6, §7, §8

Candida albicans = conditions: for zone of inhibition at 5.6 µg/mL: Candida albicans
Description: as §1, §2, §3
2.1 Preparation of Candida albicans suspension: PHARMACOPOEIA OF THE PEOPLES REPUBLIC OF CHINA, second part, 2005 edition, appendix p 81-84.
as §4, §5, §6
Test method: Double-plate counting method; […] bacteria bed 15 ml to replace the double layers, culture temperature: 37° C., time: 24 h; strain concentration: 1% […]

[1] = 0 h, serum added (40% defibered sheep serum)

Structure (SMILES): CC(OC(=O)OC1CCCCC1)OC(=O)C1C(O)CC2(O)CC(O)CC(O)C(O)CCC(O)CC(O)CC(=O)OC(C)C(C)C(O)C(C)C=CC=CC=CC=CC=CC=CC=CC(OC3OC(C)C(O)C(N)C3O)CC1O2 (centres unmarked) [amphotericin B cyclohexyloxycarbonyloxyethyl ester]
- diameter of the bacteria-inhibition zone, Candida mycoderma 0 h (Candida mycoderma; 0 h, no serum): ++ (9-12 mm: ++)
- diameter of the bacteria-inhibition zone, Candida mycoderma 0 h (Candida mycoderma; [1]): ++ (9-12 mm: ++)
- diameter of the bacteria-inhibition zone, Candida mycoderma 6 h (Candida mycoderma; 6 h, no serum): ++ (9-12 mm: ++)
- diameter of the bacteria-inhibition zone, Candida mycoderma 24 h (Candida mycoderma; 24 h, no serum): ++ (9-12 mm: ++)
- diameter of the bacteria-inhibition zone, Candida mycoderma 48 h (Candida mycoderma; 48 h, no serum): ++ (9-12 mm: ++)
- diameter of the bacteria-inhibition zone, Saccharomyces cerevisiae 0 h (Saccharomyces cerevisiae; 0 h, no serum): ++ (9-12 mm: ++)
- diameter of the bacteria-inhibition zone, Saccharomyces cerevisiae 0 h (Saccharomyces cerevisiae; [1]): ++ (9-12 mm: ++)
- diameter of the bacteria-inhibition zone, Saccharomyces cerevisiae 6 h (Saccharomyces cerevisiae; 6 h, no serum): ++ (9-12 mm: ++)
- diameter of the bacteria-inhibition zone, Saccharomyces cerevisiae 24 h (Saccharomyces cerevisiae; 24 h, no serum): ++ (9-12 mm: ++)
- diameter of the bacteria-inhibition zone, Saccharomyces cerevisiae 48 h (Saccharomyces cerevisiae; 48 h, no serum): ++ (9-12 mm: ++)
- diameter of the bacteria-inhibition zone, Candida albicans 0 h (Candida albicans; 0 h, 2.8 μg/ml after conversion, no serum): + (7-9 mm: +)
- diameter of the bacteria-inhibition zone, Candida albicans 0 h (Candida albicans; 0 h, 2.8 μg/ml after conversion, serum added (40% defibered sheep serum)): + (7-9 mm: +)
- diameter of the bacteria-inhibition zone, Candida albicans 6 h (Candida albicans; 6 h, 2.8 μg/ml after conversion, no serum): + (7-9 mm: +)
- diameter of the bacteria-inhibition zone, Candida albicans 6 h (Candida albicans; 6 h, 2.8 μg/ml after conversion, serum added (40% defibered sheep serum)): ++ (9-12 mm: ++)
- diameter of the bacteria-inhibition zone, Candida albicans 24 h (Candida albicans; 24 h, 2.8 μg/ml after conversion, no serum): + (7-9 mm: +)
- diameter of the bacteria-inhibition zone, Candida albicans 48 h (Candida albicans; 48 h, 2.8 μg/ml after conversion, no serum): + (7-9 mm: +)

Structure (SMILES): CCOC(=O)OC(C)OC(=O)[C@H]1[C@@H]2C[C@@H](OC3OC(C)C(O)C(N)C3O)/C=C/C=C/C=C/C=C/C=C/C=C/C=C/[C@H](C)[C@@H](O)[C@@H](C)[C@H](C)OC(=O)C[C@H](O)C[C@H](O)CC[C@@H](O)[C@H](O)C[C@H](O)C[C@](O)(C[C@@H]1O)O2 (some centres unmarked) [amphotericin B ethoxycarbonyloxyethyl ester]
- diameter of the bacteria-inhibition zone, Candida mycoderma 0 h (Candida mycoderma; 0 h, no serum): + (7-9 mm: +)
- diameter of the bacteria-inhibition zone, Candida mycoderma 0 h (Candida mycoderma; [1]): + (7-9 mm: +)
- diameter of the bacteria-inhibition zone, Candida mycoderma 6 h (Candida mycoderma; 6 h, no serum): + (7-9 mm: +)
- diameter of the bacteria-inhibition zone, Candida mycoderma 6 h (Candida mycoderma; 6 h, serum added (40% defibered sheep serum)): ++ (9-12 mm: ++)
- diameter of the bacteria-inhibition zone, Candida mycoderma 24 h (Candida mycoderma; 24 h, no serum): + (7-9 mm: +)
- diameter of the bacteria-inhibition zone, Candida mycoderma 48 h (Candida mycoderma; 48 h, no serum): + (7-9 mm: +)
- diameter of the bacteria-inhibition zone, Saccharomyces cerevisiae 0 h (Saccharomyces cerevisiae; 0 h, no serum): ++ (9-12 mm: ++)
- diameter of the bacteria-inhibition zone, Saccharomyces cerevisiae 0 h (Saccharomyces cerevisiae; [1]): ++ (9-12 mm: ++)
- diameter of the bacteria-inhibition zone, Saccharomyces cerevisiae 6 h (Saccharomyces cerevisiae; 6 h, no serum): ++ (9-12 mm: ++)
- diameter of the bacteria-inhibition zone, Saccharomyces cerevisiae 24 h (Saccharomyces cerevisiae; 24 h, no serum): ++ (9-12 mm: ++)
- diameter of the bacteria-inhibition zone, Saccharomyces cerevisiae 48 h (Saccharomyces cerevisiae; 48 h, no serum): ++ (9-12 mm: ++)

Structure (SMILES): CC1OC(OC2/C=C/C=C/C=C/C=C/CC/C=C/C=C/C(C)[C@@H](O)[C@@H](C)[C@H](C)OC(=O)CC(O)CC(O)CC(O)CCC(O)C(O)C[C@]3(O)CC(O)C(C(=O)O)C(C2)O3)C(O)C(N)C1O (some centres unmarked) [mycostatin, reference compound]
- zone of inhibition at 5.6 µg/mL (Candida mycoderma; 0 h, no serum, read-out: diameter of the bacteria-inhibition zone, Candida mycoderma 0 h): 12 to 14 mm
- zone of inhibition at 5.6 µg/mL (Candida mycoderma; 6 h, no serum, read-out: diameter of the bacteria-inhibition zone, Candida mycoderma 6 h): 12 to 14 mm
- zone of inhibition at 5.6 µg/mL (Candida mycoderma; 24 h, no serum, read-out: diameter of the bacteria-inhibition zone, Candida mycoderma 24 h): 12 to 14 mm
- zone of inhibition at 5.6 µg/mL (Candida mycoderma; 48 h, no serum, read-out: diameter of the bacteria-inhibition zone, Candida mycoderma 48 h): 12 to 14 mm
- zone of inhibition at 5.6 µg/mL (Saccharomyces cerevisiae; 0 h, no serum, read-out: diameter of the bacteria-inhibition zone, Saccharomyces cerevisiae 0 h): 14 to 16 mm
- zone of inhibition at 5.6 µg/mL (Saccharomyces cerevisiae; 0 h, serum added (40% defibered sheep serum), read-out: diameter of the bacteria-inhibition zone, Saccharomyces cerevisiae 0 h): 14 to 16 mm
- zone of inhibition at 5.6 µg/mL (Saccharomyces cerevisiae; 6 h, no serum, read-out: diameter of the bacteria-inhibition zone, Saccharomyces cerevisiae 6 h): 14 to 16 mm
- zone of inhibition at 5.6 µg/mL (Saccharomyces cerevisiae; 6 h, serum added (40% defibered sheep serum), read-out: diameter of the bacteria-inhibition zone, Saccharomyces cerevisiae 6 h): 14 to 16 mm
- zone of inhibition at 5.6 µg/mL (Saccharomyces cerevisiae; 24 h, no serum, read-out: diameter of the bacteria-inhibition zone, Saccharomyces cerevisiae 24 h): 14 to 16 mm
- zone of inhibition at 5.6 µg/mL (Saccharomyces cerevisiae; 24 h, serum added (40% defibered sheep serum), read-out: diameter of the bacteria-inhibition zone, Saccharomyces cerevisiae 24 h): 14 to 16 mm
- zone of inhibition at 5.6 µg/mL (Saccharomyces cerevisiae; 48 h, no serum, read-out: diameter of the bacteria-inhibition zone, Saccharomyces cerevisiae 48 h): 14 to 16 mm
- zone of inhibition at 5.6 µg/mL (Saccharomyces cerevisiae; 48 h, serum added (40% defibered sheep serum), read-out: diameter of the bacteria-inhibition zone, Saccharomyces cerevisiae 48 h): 14 to 16 mm
- diameter of the bacteria-inhibition zone, Candida albicans 0 h (Candida albicans; 0 h, 5.6 μg/ml after conversion, serum added (40% defibered sheep serum)): + (7-9 mm: +)
- diameter of the bacteria-inhibition zone, Candida albicans 6 h (Candida albicans; 6 h, 5.6 μg/ml after conversion, serum added (40% defibered sheep serum)): + (7-9 mm: +)
- diameter of the bacteria-inhibition zone, Candida albicans 24 h (Candida albicans; 24 h, 5.6 μg/ml after conversion, serum added (40% defibered sheep serum)): + (7-9 mm: +)
- diameter of the bacteria-inhibition zone, Candida albicans 48 h (Candida albicans; 48 h, 5.6 μg/ml after conversion, serum added (40% defibered sheep serum)): + (7-9 mm: +)
- zone of inhibition at 5.6 µg/mL (Candida albicans; 0 h, 5.6 μg/ml after conversion, no serum, read-out: diameter of the bacteria-inhibition zone, Candida albicans 0 h): 7 to 9 mm
- zone of inhibition at 5.6 µg/mL (Candida albicans; 6 h, 5.6 μg/ml after conversion, no serum, read-out: diameter of the bacteria-inhibition zone, Candida albicans 6 h): 7 to 9 mm
- zone of inhibition at 5.6 µg/mL (Candida albicans; 24 h, 5.6 μg/ml after conversion, no serum, read-out: diameter of the bacteria-inhibition zone, Candida albicans 24 h): 7 to 9 mm
- zone of inhibition at 5.6 µg/mL (Candida albicans; 48 h, 5.6 μg/ml after conversion, no serum, read-out: diameter of the bacteria-inhibition zone, Candida albicans 48 h): 7 to 9 mm
